Calls of active or inactive are those of the source. No cut-off for these calls is given here.

The target of series [1] is Neuronal acetylcholine receptor; alpha2/beta4 (Rattus norvegicus, UniProt P12389+P12392). Description: Antagonist activity at rat alpha2beta4 nACh receptor expressed in Xenopus oocyte assessed as inhibition of acetylcholine-induced response at -70 mV holding potential by voltage-clamp based electrophysiological assay. The class given is cell-based.
Series [2] addresses Neuronal acetylcholine receptor; alpha3/beta4 (Rattus norvegicus, UniProt P04757+P12392). Description: Antagonist activity at rat alpha3beta4 nACh receptor expressed in Xenopus oocyte assessed as inhibition of acetylcholine-induced response at -70 mV holding potential by voltage-clamp based electrophysiological assay. Format: cell-based.
The target in series [3] is Nicotinic acetylcholine receptor alpha9/alpha10 (Rattus norvegicus, UniProt P43144+Q9JLB5). Description: Antagonist activity at rat alpha9alpha10 nACh receptor expressed in Xenopus oocyte assessed as inhibition of acetylcholine-induced response at -70 mV holding potential by voltage-clamp based electrophysiological assay. Format: cell-based.
Series [4] addresses Neuronal acetylcholine receptor; alpha4/beta2 (Rattus norvegicus, UniProt P09483+P12390). The series can be described thus: Antagonist activity at rat alpha4beta2 nACh receptor expressed in Xenopus oocyte assessed as inhibition of acetylcholine-induced response at -70 mV holding potential by voltage-clamp based electrophysiological assay. The class given is cell-based.
Series [5] has as its target Neuronal acetylcholine receptor; alpha4/beta4 (Rattus norvegicus, UniProt P09483+P12392). Description: Antagonist activity at rat alpha4beta4 nACh receptor expressed in Xenopus oocyte assessed as inhibition of acetylcholine-induced response at -70 mV holding potential by voltage-clamp based electrophysiological assay. The class given is cell-based.
A short description of series [6]: Stability of the compound in human serum assessed as compound remaining after 6 hr by UPLC analysis. Format: ADME, cell-free.
Series [7] addresses Neuronal acetylcholine receptor; alpha2/beta2 (Rattus norvegicus, UniProt P12389+P12390). Description: Antagonist activity at rat alpha2beta2 nACh receptor expressed in Xenopus oocyte assessed as inhibition of acetylcholine-induced response at -70 mV holding potential by voltage-clamp based electrophysiological assay. Format: cell-based.
For series [8], the target named is Neuronal acetylcholine receptor subunit alpha-7 (Rattus norvegicus, UniProt Q05941). Description: Antagonist activity at rat alpha7 nACh receptor expressed in Xenopus oocyte assessed as inhibition of acetylcholine-induced response at -70 mV holding potential by voltage-clamp based electrophysiological assay. The class given is cell-based.
The target of series [9] is T1, Neuronal acetylcholine receptor; alpha9/alpha10 (Homo sapiens) (UniProt Q9UGM1+Q9GZZ6). Description: Antagonist activity at human alpha9alpha10 nACh receptor expressed in Xenopus oocyte assessed as inhibition of acetylcholine-induced response at -70 mV holding potential by measuring leftward shit in concentration response curve at 10 nM by voltage-clamp based electrophysiological assay. Format: cell-based. The following applies: filed as antagonist.

Series [10] has as its target Nicotinic acetylcholine receptor alpha9/alpha10 (Rattus norvegicus) (UniProt P43144+Q9JLB5). Description: Antagonist activity at rat alpha9alpha10 nACh receptor expressed in Xenopus oocyte assessed as inhibition of acetylcholine-induced response at -70 mV holding potential by measuring recovery at 10 nM after 5 mins by voltage-clamp based electrophysiological assay relative to control. Format: cell-based. The following applies: filed as antagonist.

In series [11] the target is Neuronal acetylcholine receptor; alpha9/alpha10 (Homo sapiens, UniProt Q9GZZ6+Q9UGM1). The series can be described thus: Antagonist activity at human alpha9alpha10 nACh receptor expressed in Xenopus oocyte assessed as inhibition of acetylcholine-induced response at -70 mV holding potential by voltage-clamp based electrophysiological assay. Format: cell-based.
For series [12], the target named is Neuronal acetylcholine receptor; alpha3/beta2 (Rattus norvegicus, UniProt P04757+P12390). Description: Antagonist activity at rat alpha3beta2 nACh receptor expressed in Xenopus oocyte assessed as inhibition of acetylcholine-induced response at -70 mV holding potential by voltage-clamp based electrophysiological assay. Format: cell-based.
Series [13] has as its target Nicotinic acetylcholine receptor alpha6/alpha3/beta4 (Rattus norvegicus, UniProt P04757+P12392+P43143). The series can be described thus: Antagonist activity at rat alpha6/alpha3beta4 nACh receptor expressed in Xenopus oocyte assessed as inhibition of acetylcholine-induced response at -70 mV holding potential by voltage-clamp based electrophysiological assay. The class given is cell-based.

For series [14], the target named is T1, Neuronal acetylcholine receptor; alpha9/alpha10 (Homo sapiens). Description: Antagonist activity at human alpha9alpha10 nACh receptor expressed in Xenopus oocyte assessed as inhibition of acetylcholine-induced response at -70 mV holding potential by measuring current response at 10 nM by voltage-clamp based electrophysiological assay. The following applies: filed as antagonist. Format: cell-based.

Sequence of Neuronal acetylcholine receptor; alpha2/beta2 (P12389 whole entry): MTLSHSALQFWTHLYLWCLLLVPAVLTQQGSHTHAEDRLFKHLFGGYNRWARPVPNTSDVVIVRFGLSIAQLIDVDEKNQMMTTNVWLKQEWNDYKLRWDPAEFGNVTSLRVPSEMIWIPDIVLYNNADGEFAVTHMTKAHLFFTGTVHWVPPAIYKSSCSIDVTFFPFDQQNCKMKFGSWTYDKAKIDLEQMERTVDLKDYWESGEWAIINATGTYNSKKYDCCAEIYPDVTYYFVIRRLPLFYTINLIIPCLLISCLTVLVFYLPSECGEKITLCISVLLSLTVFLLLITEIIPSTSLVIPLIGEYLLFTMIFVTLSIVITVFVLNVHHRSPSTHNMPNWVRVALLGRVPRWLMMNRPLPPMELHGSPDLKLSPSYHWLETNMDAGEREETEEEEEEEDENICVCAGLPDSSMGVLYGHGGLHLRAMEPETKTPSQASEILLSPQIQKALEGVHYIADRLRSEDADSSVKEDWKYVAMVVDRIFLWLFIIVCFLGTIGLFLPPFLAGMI
Sequence of Neuronal acetylcholine receptor; alpha2/beta2 (P12390 whole entry): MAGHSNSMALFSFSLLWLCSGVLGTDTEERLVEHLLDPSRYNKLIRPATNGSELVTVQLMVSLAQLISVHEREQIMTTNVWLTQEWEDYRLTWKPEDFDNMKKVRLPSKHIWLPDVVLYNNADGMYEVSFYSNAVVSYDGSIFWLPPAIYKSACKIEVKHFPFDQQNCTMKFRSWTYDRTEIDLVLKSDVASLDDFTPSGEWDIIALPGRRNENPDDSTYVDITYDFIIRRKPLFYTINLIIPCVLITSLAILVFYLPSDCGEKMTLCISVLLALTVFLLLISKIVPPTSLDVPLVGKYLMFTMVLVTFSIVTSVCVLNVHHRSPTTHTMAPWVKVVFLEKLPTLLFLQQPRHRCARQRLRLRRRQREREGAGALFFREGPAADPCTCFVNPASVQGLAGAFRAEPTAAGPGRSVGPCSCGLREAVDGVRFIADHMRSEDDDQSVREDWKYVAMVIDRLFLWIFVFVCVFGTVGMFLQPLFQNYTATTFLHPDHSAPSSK
Sequence of Neuronal acetylcholine receptor; alpha2/beta4 (P12389 whole entry): as the sequence (P12389 whole entry) above
Sequence of Neuronal acetylcholine receptor; alpha2/beta4 (P12392 whole entry): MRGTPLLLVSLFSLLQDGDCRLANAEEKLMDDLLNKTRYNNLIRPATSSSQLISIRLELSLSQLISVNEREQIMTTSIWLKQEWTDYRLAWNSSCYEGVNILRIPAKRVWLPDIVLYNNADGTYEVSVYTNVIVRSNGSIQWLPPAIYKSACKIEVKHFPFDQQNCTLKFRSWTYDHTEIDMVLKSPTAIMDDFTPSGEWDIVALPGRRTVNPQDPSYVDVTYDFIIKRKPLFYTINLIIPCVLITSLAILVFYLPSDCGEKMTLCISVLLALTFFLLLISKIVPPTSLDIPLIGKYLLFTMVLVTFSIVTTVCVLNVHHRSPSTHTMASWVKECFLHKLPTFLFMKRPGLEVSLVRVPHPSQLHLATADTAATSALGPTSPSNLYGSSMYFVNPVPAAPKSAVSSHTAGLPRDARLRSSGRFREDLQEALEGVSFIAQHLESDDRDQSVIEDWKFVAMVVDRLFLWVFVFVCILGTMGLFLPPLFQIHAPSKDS
Sequence of Neuronal acetylcholine receptor; alpha4/beta4 (P09483 whole entry): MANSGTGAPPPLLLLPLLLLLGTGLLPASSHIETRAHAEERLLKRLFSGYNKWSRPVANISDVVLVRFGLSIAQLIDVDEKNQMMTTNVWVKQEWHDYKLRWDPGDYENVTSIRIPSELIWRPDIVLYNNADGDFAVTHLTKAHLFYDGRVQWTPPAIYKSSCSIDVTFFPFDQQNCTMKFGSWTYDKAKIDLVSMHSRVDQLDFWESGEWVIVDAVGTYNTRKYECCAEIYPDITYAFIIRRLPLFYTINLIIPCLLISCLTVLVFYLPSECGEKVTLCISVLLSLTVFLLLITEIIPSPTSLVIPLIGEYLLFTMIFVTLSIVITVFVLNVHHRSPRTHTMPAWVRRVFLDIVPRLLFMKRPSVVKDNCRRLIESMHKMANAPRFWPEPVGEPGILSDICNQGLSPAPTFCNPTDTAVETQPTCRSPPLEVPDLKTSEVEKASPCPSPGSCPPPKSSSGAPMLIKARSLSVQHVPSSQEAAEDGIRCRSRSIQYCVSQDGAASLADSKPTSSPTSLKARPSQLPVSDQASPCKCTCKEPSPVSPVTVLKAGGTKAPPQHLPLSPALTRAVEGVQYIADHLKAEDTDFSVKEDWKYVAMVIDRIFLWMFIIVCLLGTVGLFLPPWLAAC
Sequence of Neuronal acetylcholine receptor; alpha4/beta4 (P12392 whole entry): as the sequence (P12392 whole entry) above
Sequence of Neuronal acetylcholine receptor; alpha4/beta2 (P09483 whole entry): as the sequence (P09483 whole entry) above
Sequence of Neuronal acetylcholine receptor; alpha4/beta2 (P12390 whole entry): as the sequence (P12390 whole entry) above
Sequence of Neuronal acetylcholine receptor subunit alpha-7 (Q05941 whole entry): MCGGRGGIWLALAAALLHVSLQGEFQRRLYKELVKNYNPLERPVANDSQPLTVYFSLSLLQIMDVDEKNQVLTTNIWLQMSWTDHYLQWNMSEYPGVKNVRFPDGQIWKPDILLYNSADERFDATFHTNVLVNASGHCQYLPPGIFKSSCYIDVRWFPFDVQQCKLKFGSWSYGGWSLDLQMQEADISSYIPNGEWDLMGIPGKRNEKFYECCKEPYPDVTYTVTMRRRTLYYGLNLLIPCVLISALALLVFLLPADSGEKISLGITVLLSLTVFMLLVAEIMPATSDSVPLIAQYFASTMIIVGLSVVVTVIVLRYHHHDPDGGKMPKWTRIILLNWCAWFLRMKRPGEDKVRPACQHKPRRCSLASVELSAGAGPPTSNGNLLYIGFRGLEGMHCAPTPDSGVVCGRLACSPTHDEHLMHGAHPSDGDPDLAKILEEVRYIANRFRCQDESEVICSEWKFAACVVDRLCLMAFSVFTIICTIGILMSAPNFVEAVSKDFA

For `CC(C)[C@H](NC(=O)[C@@H]1CSSC[C@H](NC(=O)[C@@H](N)[C@@H](C)O)C(=O)N[C@@H](CCCNC(=N)N)C(=O)N[C@@H](CO)C(=O)N[C@@H](CO)C(=O)NCC(=O)N[C@@H](CCCNC(=N)N)C(=O)N[C@@H](Cc2ccc(O)cc2)C(=O)N[C@H]2CSSC[C@H](NC(=O)[C@H](Cc3ccc(O)cc3)NC(=O)[C@H](CCCNC(=N)N)NC(=O)[C@H](CCCNC(=N)N)NC(=O)[C@H](CCCNC(=N)N)NC(=O)[C@H](CCCNC(=N)N)NC(=O)[C@H](CC(=O)O)NC(=O)[C@H](Cc3ccc(O)cc3)NC(=O)[C@@H]3CCCN3C(=O)[C@H](CO)NC(=O)[C@H](CCCNC(=N)N)NC2=O)C(=O)N[C@@H](CCCNC(=N)N)C(=O)N[C@@H](CCCNC(=N)N)C(=O)N[C@@H](C)C(=O)N[C@@H]([C@@H](C)O)C(=O)N[C@@H](CC(=O)O)C(=O)N[C@@H](C)C(=O)N1)C(=O)O`, the IC50 (usually the concentration that gives 50% inhibition) in [1] amounted to 3.65 µM; in series [2] it was 6.03 µM; in series [3], 0.0014 µM; in [4] it was 3.15 µM; in series [5], 8.24 µM; in series [7], 2.99 µM. For the same molecule, the IC50 in [8] worked out at 1.36 µM; in [11], 0.011 µM; in series [12], 1.46 µM; in series [13], 4.01 µM. The Stability entry in [6] is “Stable”. Also, the inhibition (commonly the drop in the measured response relative to a control, in per cent) in series [9] was “Active”. The outcome in [10] was Active. Also, in [14], the inhibition is 60%.
